For series [1], the species on record is Canis familiaris. In words: Compound was evaluated for the lowest dose where fourfold elevations over basal GH levels were observed in Beagle dog model after peroral dose of 0.25 mpk; 8/8. It counts as functional, Canis lupus familiaris.
Series [2] is described as follows: half life was evaluated. The series is classed as ADME.
In series [3] the test system is Canis familiaris. As to the kind of experiment: Compound was evaluated for the lowest dose where fourfold elevations over basal GH levels were observed in Beagle dog model after intravenous dose of 0.025 mpk and 0.125 mpk oral dose; 6/8. It counts as functional, Canis lupus familiaris.
Series [4] is filed under the species Canis familiaris. As to the kind of experiment: Compound was evaluated for the lowest dose where fourfold elevations over basal GH levels were observed in Beagle dog model after peroral dose of 0.5 mpk; 4/4. The series is classed as functional, Canis lupus familiaris.
The species entered for series [5] is Canis familiaris. In words: Compound was evaluated for the lowest dose where fourfold elevations over basal GH levels were observed in Beagle dog model after peroral dose of 0.25 mpk; 2/5. The series is classed as functional, Canis lupus familiaris.
The species named for series [6] is Canis familiaris. As to the kind of experiment: Compound was evaluated for the lowest dose where fourfold elevations over basal GH levels were observed in Beagle dog model after peroral dose of 0.25 mpk; 5/8. It counts as functional, Canis lupus familiaris.
The subject of series [7] is Canis familiaris. As to the kind of experiment: Compound was evaluated for percentage of increase in IGF-1 levels, after chronic oral dosing at 1.0 mpk on day 4. It counts as functional, Canis lupus familiaris.
The nature of series [8]: Compound was evaluated for its absorption in the rats. The series is classed as ADME, organism-based. The settings on record: rat, in vivo; read-out: Absorption.
A short description of series [9]: Compound was evaluated for its bioavailability in the dogs. It counts as ADME, organism-based, Canis lupus familiaris. The conditions noted are these: dog, in vivo; read-out: Bioavailabiility.
The test system of series [10] is Canis familiaris. As to the kind of experiment: Compound was evaluated for percentage of increase in IGF-1 levels, after chronic oral dosing at 0.5 mpk on day 4. The series is classed as functional, Canis lupus familiaris.
Series [11] has as its system Canis familiaris. As to the kind of experiment: Compound was evaluated for percentage of growth hormone of day1 response, after chronic oral dosing at 1.0 mpk on day 4. The series is classed as functional, Canis lupus familiaris.
Series [12] can be described thus: Compound was evaluated for its bioavailability in the rats. The settings on record: rat, in vivo; read-out: Bioavailabiility. It counts as ADME, organism-based.
The subject of series [13] is Canis familiaris. As to the kind of experiment: Compound was evaluated for percentage of growth hormone of day1 response, after chronic oral dosing at 0.5 mpk on day 4. The series is classed as functional, Canis lupus familiaris.
Series [14] relates to Canis familiaris. In words: Compound was evaluated for the lowest dose where fourfold elevations over basal GH levels were observed in Beagle dog model after intravenous dose of 0.025 mpk and 0.125 mpk oral dose; 1/2. It counts as functional, Canis lupus familiaris.
The species named for series [15] is Canis familiaris. In words: Compound was evaluated for the lowest dose where fourfold elevations over basal GH levels were observed in Beagle dog model after peroral dose of 0.5 mpk; 1/2. The series is classed as functional, Canis lupus familiaris.
The species named for series [16] is Canis familiaris. As to the kind of experiment: Compound was evaluated for the lowest dose where fourfold elevations over basal GH levels were observed in Beagle dog model after peroral dose of 0.25 mpk; 1/1. The series is classed as functional, Canis lupus familiaris.
The species entered for series [17] is Canis familiaris. As to the kind of experiment: Compound was evaluated for the lowest dose where fourfold elevations over basal GH levels were observed in Beagle dog model after peroral dose of 0.5 mpk; 2/2. It counts as functional, Canis lupus familiaris.

Regarding `CC(C)(N)C(=O)N[C@H](COCc1ccccc1)C(=O)N1CCC2(CC1)CN(S(C)(=O)=O)c1ccccc12.Cl`, the values for the Responders in series [1] and in series [3] were 8 and 6, respectively. This compound showed a half-life in series [2] of 4.8 h.
For `CCOC(=O)C[C@@H]1CC2(CCN(C(=O)[C@@H](CCCc3ccccc3)NC(=O)C(C)(C)N)CC2)c2ccccc21.Cl`, the Responders was found to be 4 in [4] and 2 in series [5].
Take `CCOC(=O)[C@H]1CC2(CCN(C(=O)[C@@H](CCCc3ccccc3)NC(=O)C(C)(C)N)CC2)c2ccccc21.Cl`: the Responders was 5 in series [6] and 1 in [14]. Further, the Increase was 45% in [7] and 65% in series [10]. In addition, the Fa in series [8] was above 50%. Also, the bioavailability in series [9] was 11.8%; in series [12], 4.5%. Also, the results for the GH in [11] and in [13] were 80% and 65%, respectively.
In the case of `CC(C)(N)C(=O)N[C@H](CCCc1ccccc1)C(=O)N1CCC2(CC1)C[C@H](C(=O)O)c1ccccc12.Cl`, the Responders in series [15] and in [16] was 1 throughout. The same compound showed a half-life in series [2] of 1.7 h.
Turning to `CC(C)(N)C(=O)N[C@H](CCCc1ccccc1)C(=O)N1CCC2(CC1)C[C@@H](CC(=O)O)c1ccccc12.Cl`, the Responders in series [17] was 2.

The term half-life denotes how long it takes for the measured level to halve. Lower therefore signals rapid decline.

(Values after ChEMBL document CHEMBL1130305, “The design and synthesis of orally active short duration spiroindane growth hormone secretagogues” (Bioorg Med Chem Lett, 1997).)
